Measured values taken from ChEMBL document CHEMBL3044811, “Efficacy of grain protectants against four psocid species on maize, rice and wheat” (2009).
The source made the active and inactive calls. No cut-off for these calls is given here.

Legend:
[1] = tested on: Liposcelis paeta; test: Insecticidal activity against Liposcelis paeta in compound pret-reated maize grains assessed as mortality at 1.6 ppm after 7 days (reference value: 13.3 +/-3.3%); format: functional; conditions: 168 h
[2] = tested on: Liposcelis paeta; test: Insecticidal activity against Liposcelis paeta in compound pre-treated rice grains assessed as mortality at 2.2 ppm after 14 days (reference value: 3.4 +/-1.6%); format: functional
[3] = tested on: Liposcelis bostrychophila; test: Insecticidal activity against Liposcelis bostrychophila (booklice) in compound pre-treated maize grains assessed as decrease in progeny production at 1.6 ppm after 30 days; format: functional, organism-based
[4] = tested on: Liposcelis entomophila; test: Insecticidal activity against Liposcelis entomophila in compound pre-treated rice grains assessed as effect on progeny production at 2.2 ppm after 30 days; format: functional, organism-based
[5] = tested on: Liposcelis paeta; test: Insecticidal activity against Liposcelis paeta in compound pret-reated wheat grains assessed as mortality at 1.6 ppm after 7 days (reference value: 7.8 +/-3.2%); format: functional; conditions: 168 h
[6] = tested on: Liposcelis entomophila; test: Insecticidal activity against Liposcelis entomophila in compound pre-treated maize grains assessed as decrease in progeny production at 1.6 ppm after 30 days; format: functional, organism-based
[7] = tested on: Liposcelis entomophila; test: Insecticidal activity against Liposcelis entomophila in compound pre-treated rice grains assessed as mortality at 2.2 ppm after 7 days (reference value: 3.3 +/-2.6%); format: functional
[8] = tested on: Liposcelis bostrychophila; test: Insecticidal activity against Liposcelis bostrychophila (booklice) in compound pre-treated wheat grains assessed as mortality at 1.6 ppm after 7 days (reference value: 3.3 +/-1.7%); format: functional
[9] = tested on: Liposcelis bostrychophila; test: Insecticidal activity against Liposcelis bostrychophila (booklice) in compound pre-treated maize grains assessed as mortality at 1.6 ppm after 7 days (reference value: 8.9 +/-2.6%); format: functional
[10] = tested on: Liposcelis entomophila; test: Insecticidal activity against Liposcelis entomophila in compound pre-treated maize grains assessed as mortality at 1.6 ppm after 7 days (reference value: 15.6 +/-6.9%); format: functional
[11] = tested on: Lepinotus reticulatus; test: Insecticidal activity against Lepinotus reticulatus in compound pre-treated maize grains assessed as decrease in progeny production at 1.6 ppm after 30 days; format: functional, organism-based
[12] = tested on: Lepinotus reticulatus; test: Insecticidal activity against Lepinotus reticulatus in compound pre-treated rice grains assessed as effect on progeny production at 2.2 ppm after 30 days; format: functional, organism-based
[13] = tested on: Liposcelis bostrychophila; test: Insecticidal activity against Liposcelis bostrychophila (booklice) in compound pre-treated rice grains assessed as mortality at 2.2 ppm after 7 days (reference value: 8.9 +/-4.5%); format: functional
[14] = tested on: Lepinotus reticulatus; test: Insecticidal activity against Lepinotus reticulatus in compound pre-treated rice grains assessed as mortality at 2.2 ppm after 14 days (reference value: 15.5 +/-4.1%); format: functional
[15] = tested on: Liposcelis bostrychophila; test: Insecticidal activity against Liposcelis bostrychophila (booklice) in compound pre-treated wheat grains assessed as effect on progeny production at 1.6 ppm after 30 days; format: functional, organism-based
[16] = tested on: Liposcelis entomophila; test: Insecticidal activity against Liposcelis entomophila in compound pre-treated wheat grains assessed as mortality at 1.6 ppm after 14 days (reference value: 13.3 +/-4.7%); format: functional
[17] = tested on: Liposcelis paeta; test: Insecticidal activity against Liposcelis paeta in compound pre-treated maize grains assessed as mortality at 1.6 ppm after 14 days (reference value: 14.1 +/-4.1%); format: functional
[18] = tested on: Lepinotus reticulatus; test: Insecticidal activity against Lepinotus reticulatus in compound pre-treated wheat grains assessed as mortality at 1.6 ppm after 7 days (reference value: 10.0 +/-5.3%); format: functional
[19] = tested on: Liposcelis bostrychophila; test: Insecticidal activity against Liposcelis bostrychophila (booklice) in compound pre-treated maize grains assessed as mortality at 1.6 ppm after 14 days (reference value: 13.5 +/-5.3%); format: functional
[20] = tested on: Liposcelis entomophila; test: Insecticidal activity against Liposcelis entomophila in compound pre-treated wheat grains assessed as mortality at 1.6 ppm after 7 days (reference value: 5.6 +/-2.9%); format: functional
[21] = tested on: Lepinotus reticulatus; test: Insecticidal activity against Lepinotus reticulatus in compound pre-treated maize grains assessed as mortality at 1.6 ppm after 7 days (reference value: 34.4 +/-11.4%); format: functional
[22] = tested on: Lepinotus reticulatus; test: Insecticidal activity against Lepinotus reticulatus in compound pre-treated rice grains assessed as mortality at 2.2 ppm after 7 days (reference value: 6.8 +/-2.4%); format: functional
[23] = tested on: Liposcelis bostrychophila; test: Insecticidal activity against Liposcelis bostrychophila (booklice) in compound pre-treated rice grains assessed as mortality at 2.2 ppm after 14 days (reference value: 9.7 +/-2.4%); format: functional
[24] = tested on: Liposcelis paeta; test: Insecticidal activity against Liposcelis paeta in compound pre-treated wheat grains assessed as mortality at 1.6 ppm after 14 days (reference value: 5.6 +/-1.8%); format: functional
[25] = tested on: Liposcelis paeta; test: Insecticidal activity against Liposcelis paeta in compound pre-treated rice grains assessed as mortality at 2.2 ppm after 7 days (reference value: 3.3 +/-1.7%); format: functional
[26] = tested on: Lepinotus reticulatus; test: Insecticidal activity against Lepinotus reticulatus in compound pre-treated wheat grains assessed as mortality at 1.6 ppm after 14 days (reference value: 21.1 +/-7.4%); format: functional
[27] = tested on: Lepinotus reticulatus; test: Insecticidal activity against Lepinotus reticulatus in compound pre-treated wheat grains assessed as decrease in progeny production at 1.6 ppm after 30 days; format: functional, organism-based
[28] = tested on: Liposcelis bostrychophila; test: Insecticidal activity against Liposcelis bostrychophila (booklice) in compound pre-treated wheat grains assessed as mortality at 1.6 ppm after 14 days (reference value: 6.8 +/-3.3%); format: functional
[29] = tested on: Liposcelis entomophila; test: Insecticidal activity against Liposcelis entomophila in compound pre-treated wheat grains assessed as decrease in progeny production at 1.6 ppm after 30 days; format: functional, organism-based
[30] = tested on: Liposcelis entomophila; test: Insecticidal activity against Liposcelis entomophila in compound pre-treated maize grains assessed as mortality at 1.6 ppm after 14 days (reference value: 14.4 +/-4.1%); format: functional
[31] = tested on: Liposcelis entomophila; test: Insecticidal activity against Liposcelis entomophila in compound pre-treated rice grains assessed as mortality at 2.2 ppm after 14 days (reference value: 10.0 +/-4.7%); format: functional
[32] = tested on: Lepinotus reticulatus; test: Insecticidal activity against Lepinotus reticulatus in compound pre-treated maize grains assessed as mortality at 1.6 ppm after 14 days (reference value: 61.1 +/-11.9%); format: functional
[33] = tested on: Liposcelis bostrychophila; test: Insecticidal activity against Liposcelis bostrychophila (booklice) in compound pre-treated rice grains assessed as effect on progeny production at 2.2 ppm after 30 days; format: functional, organism-based

With `C=C/C=C\CC1=C(C)[C@@H](OC(=O)[C@@H]2[C@@H](/C=C(\C)C(=O)OC)C2(C)C)CC1=O` [PYRETHRIN] the mortality at 1.6 ppm [1] was 10%, the mortality at 2.2 ppm [2] was 31.1% and the inhibition [3] was “Active”. For the same molecule, the inhibition [4] was “inactive”, the mortality at 1.6 ppm [5] was 14.5% and the inhibition [6] was “Active”. The mortality at 2.2 ppm [7] was 8.9%, the mortality at 1.6 ppm [8] was 17.8% and the mortality at 1.6 ppm [9] was 18.9%. For the same molecule, the mortality at 1.6 ppm [10] was 17.8%, the inhibition [11] was “Active” and the inhibition [12] was “inactive”. The mortality at 2.2 ppm [13] was 23.3%, the mortality at 2.2 ppm [14] was 14.3% and the inhibition [15] was “inactive”. For the same molecule, the mortality at 1.6 ppm [16] was 55.6%, the mortality at 1.6 ppm [17] was 18.9% and the mortality at 1.6 ppm [18] was 41.1%. It also gave a mortality at 1.6 ppm [19] of 23.3%, a mortality at 1.6 ppm [20] of 47.8% and a mortality at 1.6 ppm [21] of 57.8%. For the same molecule, the mortality at 2.2 ppm [22] was 23.4%, the mortality at 2.2 ppm [23] was 26.5% and the mortality at 1.6 ppm [24] was 14.4%. The mortality at 2.2 ppm [25] was 15.7%, the mortality at 1.6 ppm [26] was 65.7% and the inhibition [27] was “Active”. For the same molecule, the mortality at 1.6 ppm [28] was 30%, the inhibition [29] was “Active” and the mortality at 1.6 ppm [30] was 60%. For the same molecule, the mortality at 2.2 ppm [31] was 16.7%, the mortality at 1.6 ppm [32] was 86.7% and the inhibition [33] was “inactive”.
